Marks after values point to notes of the source that are not given here.
Columns and labels:
TNF-α [1] = experiment: TNF-α level in TNF-α stimulated HaCaT; format: cell-based, Human; conditions: 24 h
Protocol: (§1) Effect on pro-inflammatory cytokines against TNF-α/LPS+PMA stimulation: TNF-α; IFN-γ; TARC; TSLP; IL-6; IL-8: Cell lines: Human keratinocytes (HaCaT); test item (TI); IS181; experimental steps: pre-treatment of cells with TI for 2 hours; stimulation with TNF-α: 20 ng/ml; stimulation with LPS+PMA-10 μg/ml LPS+40 ng/ml PMA; supernatant collection for cytokine analysis after 24 hours; concentration range: 0.1 μg/ml-100 μg/ml (duplicate wells); cytokines: TNF-α; IFN-γ; TARC; TSLP; IL-6; IL-8. Method of estimating cytokines: ELISA; positive control: dexamethasone.
(§2) Cell line: HaCaT (Human Keratinocytes); TI Treatment regimen: Pretreatment for 2 h; TI Concentration range: 0.1 μg/ml-100 μg/ml (duplicate wells); TNF-α stimulation: 20 ng/ml; LPS+PMA stimulation: 10 μg/ml LPS+40 ng/ml PMA; Time point for supernatants collection: 24 h; Method of estimation: ELISA; Positive control: Dexamethasone

IFN-γ = experiment: TNF-α stimulated IFN-γ secretion in HaCaT; format: cell-based, Human; design: IFN-γ Conc (μ/ml): unit not given here; conditions: for IFN-γ % decrease with respect to TNF-α / IFN-γ Conc (μ/ml): HaCaT + TNF-α, 24 h
Protocol: as §1, §2

MAP2K1 (MEK1) = MAP2K1 (MEK1) (Homo sapiens, UniProt Q02750); experiment: Biochemical kinase assay MAP2K1
MAP2K1 (MEK1), sequence (Q02750 whole entry): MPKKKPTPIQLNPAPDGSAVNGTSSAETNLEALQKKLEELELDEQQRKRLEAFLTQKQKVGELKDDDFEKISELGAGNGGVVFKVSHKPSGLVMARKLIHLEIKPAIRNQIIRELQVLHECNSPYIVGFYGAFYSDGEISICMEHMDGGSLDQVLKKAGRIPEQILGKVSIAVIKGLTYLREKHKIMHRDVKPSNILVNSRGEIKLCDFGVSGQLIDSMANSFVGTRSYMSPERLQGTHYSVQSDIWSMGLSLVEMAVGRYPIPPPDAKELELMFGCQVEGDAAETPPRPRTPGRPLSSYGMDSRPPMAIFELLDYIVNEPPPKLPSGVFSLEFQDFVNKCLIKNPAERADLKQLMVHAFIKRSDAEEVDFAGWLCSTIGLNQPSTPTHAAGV
Protocol: Test system: cell free assays; test items: IS181; concentrations tested: 1 ng/ml-5000 μg/ml; Kinases: a) Cell free assays: EGFR (ErbB1); FLT1 (VEGFR1); JAK1; JAK3 MAP2K1 (MEK1); PDGFRA (PDGFR alpha); PRKCA (PKC alpha); b) cell based assay: JAK-STAT.

[2] = system: HaCaT (Human keratinocyte) cell line; experiment: Mitochondrial membrane potential by JC-1 assay; format: cell-based; conditions: 20 h
Protocol: For testing Apoptosis the Human Keratinocytes (HaCaT) cell line has been employed. The growth conditions are DMEM containing 1% FBS. […] Test concentration range is IS181 is tested at the highest (Qualitative analysis) effective concentrations selected on the basis of Quantitative JC-1 assay. The method of estimation is Mitochondrial membrane depolarization by JC-1 assay (Early apoptosis), LDH enzyme release (Necrosis). Treatment regimen & time points are JC-1 assay—Single addition, 20 h; LDH assay—Single addition, 24 h; Positive control: Triton-X-100, Doxorubicin-hydrochloride
Quantitative effect on Δψm (Red fluorescence/Green fluorescence) in HaCaT cells post 20 hours of treatment. […] Evaluation (Qualitative and quantitative) of differential JC-1 staining in treated cells after 20 h on incubation with the test peptides.

TNF-α [3] = experiment: LPS stimulated TNF-α secretion in RAW264.7; format: cell-based, Mouse; conditions: for TNF-α % decrease with respect to LPS / TNF-α Conc (pg/ml): RAW264.7 + LPS, 24 h
Protocol: Effect on pro-inflammatory cytokines against LPS stimulation: TNF-α; IL-6; IL-1-β: Cell lines: Murine macrophage cell line (RAW264.7); test item: IS181; experimental steps: pretreatment of cells with TI for 2 hours; stimulation with LPS (100 ng/ml) for 24 hours; supernatant collection for cytokine analysis; concentration range: o.1 μg/ml-500 μg/ml (duplicate wells); Cytokines: TNF-α; IL-6; IL-1-β; Method of estimating cytokines: ELISA; positive control: dexamethasone.
Cell line: RAW264.7 (Mouse macrophages); TI treatment regimen: Pretreatment for 2 h; TI Concentration range: 0.1 μg/ml-500 μg/ml (duplicate wells); LPS stimulation: 100 ng/ml; Time point for supernatants collection: 24 h; Method of estimation: ELISA; Positive control: Dexamethasone

inhibition of MAP2K1 (MEK1) (MAP2K1 (MEK1); 10 μg/ml-5000 μg/ml): 23%-49%
inhibition at 50 µg/mL (MAP2K1 (MEK1); cell free, 50 μg/ml): 49%
inhibition at 100 µg/mL (MAP2K1 (MEK1); cell free, 100 μg/ml): 26%
inhibition at 250 µg/mL (MAP2K1 (MEK1); cell free, 250 μg/ml): 30%
inhibition at 500 µg/mL (MAP2K1 (MEK1); cell free, 500 μg/ml): 23%
inhibition at 1000 µg/mL (MAP2K1 (MEK1); cell free, 1000 μg/ml): 13%
inhibition at 2000 µg/mL (MAP2K1 (MEK1); cell free, 2000 μg/ml): -16%
inhibition at 5000 µg/mL (MAP2K1 (MEK1); cell free, 5000 μg/ml): -81%
Substance: H-WVQRVVEKFLK-OH [IS181, H-Trp-Val-Gln-Arg-Val-Val-Glu-Lys-Phe-Leu-Lys-OH]
TNF-α % decrease with respect to TNF-α (TNF-α [1]; 0.1 μg/ml): −7.5%
TNF-α Conc (TNF-α [1]; 0.1 μg/ml): 22731.8 pg/mL
TNF-α % decrease with respect to TNF-α (TNF-α [1]; 1 μg/ml): 5.8%
TNF-α Conc (TNF-α [1]; 1 μg/ml): 19924.1 pg/mL
TNF-α % decrease with respect to TNF-α (TNF-α [1]; 5 μg/ml): −8.1%
TNF-α Conc (TNF-α [1]; 5 μg/ml): 22852.1 pg/mL
TNF-α % decrease with respect to TNF-α (TNF-α [1]; 10 μg/ml): −15.7%
TNF-α Conc (TNF-α [1]; 10 μg/ml): 24469.9 pg/mL
TNF-α % decrease with respect to TNF-α (TNF-α [1]; 100 μg/ml): −18.8%
TNF-α Conc (TNF-α [1]; 100 μg/ml): 25125.0 pg/mL
IFN-γ secretion downregulated as compared to TNF-α stimulated cells (IFN-γ; 0.1 μg/ml-100): 27.1%-40.1%
IFN-γ inhibition (IFN-γ; HaCaT): good extent of IFN-γ and TARC inhibition
IFN-γ % decrease with respect to TNF-α (IFN-γ; 0.1 μg/ml): 35.6%
IFN-γ Conc (μ/ml) (IFN-γ; 0.1 μg/ml): 30.7***
IFN-γ % decrease with respect to TNF-α (IFN-γ; 1 μg/ml): 36.7%
IFN-γ Conc (μ/ml) (IFN-γ; 1 μg/ml): 30.1***
IFN-γ % decrease with respect to TNF-α (IFN-γ; 5 μg/ml): 40.1%
IFN-γ Conc (μ/ml) (IFN-γ; 5 μg/ml): 28.6***
IFN-γ % decrease with respect to TNF-α (IFN-γ; 10 μg/ml): 27.1%
IFN-γ Conc (μ/ml) (IFN-γ; 10 μg/ml): 34.7***
IFN-γ % decrease with respect to TNF-α (IFN-γ; 100 μg/ml): 32.0%
IFN-γ Conc (μ/ml) (IFN-γ; 100 μg/ml): 32.4***
Green fluorescence intensity (RFU) ([2]; 400 μg/ml): 13.67 ± 1.89 RFU
Red fluorescence intensity (RFU) ([2]; 400 μg/ml): 134.33 ± 32.06 RFU
Red fluorescence intensity/Green fluorescence intensity ([2]; 400 μg/ml): 9.83
Green fluorescence intensity (RFU) ([2]; 475 μg/ml): 14.83 ± 3.54 RFU
Red fluorescence intensity (RFU) ([2]; 475 μg/ml): 150.67 ± 11.31 RFU
Red fluorescence intensity/Green fluorescence intensity ([2]; 475 μg/ml): 10.16
Green fluorescence intensity (RFU) ([2]; 500 μg/ml): 14.5 ± 2.12 RFU
Red fluorescence intensity (RFU) ([2]; 500 μg/ml): 152.83 ± 31.82 RFU
Red fluorescence intensity/Green fluorescence intensity ([2]; 500 μg/ml): 10.54
Green fluorescence intensity (RFU) ([2]; 750 μg/ml): 17.67 ± 4.24 RFU
Red fluorescence intensity (RFU) ([2]; 750 μg/ml): 126.17 ± 6.36 RFU
Red fluorescence intensity/Green fluorescence intensity ([2]; 750 μg/ml): 7.14
decrease in mitochondrial membrane potential (R/G ratio) as compared to untreated cells ([2]; 750 μg/ml to 2 mg/ml): 34% to 88.6%
Green fluorescence intensity (RFU) ([2]; 1000 μg/ml): ^#25.83 ± 5.42^ RFU
Red fluorescence intensity (RFU) ([2]; 1000 μg/ml): ^#102.25 ± 4.60 ^ RFU
Red fluorescence intensity/Green fluorescence intensity ([2]; 1000 μg/ml): 3.96
Green fluorescence intensity (RFU) ([2]; 2000 μg/ml): #41.25 ± 15.20 RFU
Red fluorescence intensity (RFU) ([2]; 2000 μg/ml): ^#50.58 ± 0.12^ RFU
Red fluorescence intensity/Green fluorescence intensity ([2]; 2000 μg/ml): **1.23
TNF-α inhibition as compared to LPS stimulated levels (TNF-α [3]; RAW264.7): good extent of TNF-α and IL-6 inhibition
TNF-α % decrease with respect to LPS (TNF-α [3]; 0.1 μ/ml): 58.8%
TNF-α Conc (pg/ml) (TNF-α [3]; 0.1 μ/ml): 1190.3*** pg/ml
TNF-α % decrease with respect to LPS (TNF-α [3]; 1 μ/ml): 32.1%
TNF-α Conc (pg/ml) (TNF-α [3]; 1 μ/ml): 1960.5*** pg/ml
TNF-α % decrease with respect to LPS (TNF-α [3]; 5 μ/ml): 34.0%
TNF-α Conc (pg/ml) (TNF-α [3]; 5 μ/ml): 1906.1*** pg/ml
TNF-α % decrease with respect to LPS (TNF-α [3]; 10 μ/ml): 60.2%
TNF-α Conc (pg/ml) (TNF-α [3]; 10 μ/ml): 1149.0*** pg/ml
TNF-α % decrease with respect to LPS (TNF-α [3]; 100 μ/ml): 17.6%
TNF-α Conc (pg/ml) (TNF-α [3]; 100 μ/ml): 2379.2* pg/ml
TNF-α % decrease with respect to LPS (TNF-α [3]; 500 μ/ml): 38.4%
TNF-α Conc (pg/ml) (TNF-α [3]; 500 μ/ml): 1779.9*** pg/ml
TNF-α secretion downregulated vs LPS stimulated levels (TNF-α [3]; RAW264.7, 0.1 μg/ml-500 μg/ml): 17.6%-60.2%
